Assay results from patent US20250057963A1, “DISCOVERY OF PIPERLONGUMINE AS A NOVEL E3 LIGASE LIGAND” (University of Florida Research Foundation, Incorporated, priority 2021, published 2025).

How the values were obtained:
[1] = tested on: LNCaP, 22RV1, PC3 and DU145 prostate cancer cell lines; test: Viability (MTS) assay in prostate cancer cell lines; type: cell-based, Human; conditions: all four cell lines LNCaP, 22RV1, PC3, DU145; MTS, 72 h treatment
Protocol: All the cell lines were maintained in a humidified incubator at 37° C. and 5% CO2. […] The data were expressed as average % cell viability and fitted in non-linear regression curves using GraphPad Prism 9 (GraphPad Software, La Jolla, CA, USA).

[2] = tested on: MOLT4 cells; test: Viability (MTS) assay in MOLT4 cells; type: cell-based, Human; conditions: 72 h treatment
Protocol: Human T-ALL MOLT4 (Cat. No. CRL-1582), K562 (Cat. No. CCL-243), NCI-H1299 (Cat. No. CRL-5803), NCI-H2228 (Cat. No. CRL-5935), LNCaP (Cat. No. CRL-1740), 22RV1 (Cat. No. CRL-2505), PC3 (Cat. No. CRL-1435), DU145 (Cat. No. HTB-81), and epithelial kidney HEK 293T (293T, Cat. No. ACS-4500) cell lines were recently purchased from American Type Culture Collection (ATCC, Manassas, VA, USA). MOLT4, K562, NCI—H-1299, NCI-H2228, LNCap, and 22RV 1 cell lines were cultured in RPMI 1640 medium (Cat No. 22400-089, Thermo Fisher Scientific, Waltham, MA, USA) supplemented with 10% (v/v) heat-inactivated fetal bovine serum (FBS, Cat. No. S11150H, Atlanta Biologicals, Flowery Branch, GA, USA), 100 U/mL penicillin and 100 pig/mL streptomycin (Pen-Strep, Cat. No. 15140122, Thermo Fisher Scientific). PC3 cells were cultured in complete F—12K medium (Kaighn's modification of Ham's F-12 medium, Cat. No. 30-2004, ATCC) supplemented with 10% (v/v) heat-inactivated FBS, 100 U/mL penicillin, and 100 μg/mL streptomycin. […]
Viability (MTS) assays in various cancer cells followed the methods described in our previous report (Khan et al., 2019). The data were expressed as average % cell viability and fitted in non-linear regression curves using GraphPad Prism 9 (GraphPad Software, La Jolla, CA, USA).

[3] = target: T1, purified KEAP1 protein (Homo sapiens, UniProt Q14145); test: Gel-based competitive ABPP assay with IA-alkyne; type: binding; conditions: purified His-KEAP1, serially diluted 955
T1 construct: made in house; host or cells: bacterial cells grown in LB and induced with IPTG
Protocol: The plasmid pet28a-His6-Keap1 for expressing His-KEAP1 was purchased from Addgene (a gift from Yimon Aye, plasmid #62454). To purify His-KEAP1, the plasmid transformed cells were grown in LB broth at 37° C. with shaking until the optical density at 600 nm reached 0.6-0.7. Isopropyl-β-D-thiogalactopyranoside (1 mM) was added to induce protein expression overnight at 16° C. Cell pellet was resuspended in lysis buffer [50 mM Tris-Hcl (pH 7.5), 150 mM NaCl, 1 mM EDTA, 0.05% NP-40, […], lx protease inhibitor, and 1 mM DTT] and lysed using sonication. The lysate was cleared by centrifugation at 20,000×g for 30 min at 4° C. and purified by using GE Healthcare His GraviTrap™ Kit (Cat. No. 45-002-016, Fisher Scientific). After elution, the proteins were concentrated by using Pierce Protein Concentrators PES, 30K MWCO (Cat. No. 88502, ThermoFisher) and then dialyzed into the buffer containing 50 mM HEPES, 150 mM NaCl, and 0.1 mM EDTA (pH 7.5).
A gel-based ABPP assay was performed as previously described with some modifications (Ward et al., 2019). Briefly, Purified His-KEAP1 ([…]) was diluted into 50 μL of PBS and 0.5 μL of either DMSO (vehicle) or indicated compound was added to incubate at 25° C. for 1 h, then the samples were treated with 20 µM IA-Alkyne (Cat. No. 7015, Tocris, prepared in DMSO) at 25° C. for 1 h. […]

T1 sequence (Q14145 whole entry): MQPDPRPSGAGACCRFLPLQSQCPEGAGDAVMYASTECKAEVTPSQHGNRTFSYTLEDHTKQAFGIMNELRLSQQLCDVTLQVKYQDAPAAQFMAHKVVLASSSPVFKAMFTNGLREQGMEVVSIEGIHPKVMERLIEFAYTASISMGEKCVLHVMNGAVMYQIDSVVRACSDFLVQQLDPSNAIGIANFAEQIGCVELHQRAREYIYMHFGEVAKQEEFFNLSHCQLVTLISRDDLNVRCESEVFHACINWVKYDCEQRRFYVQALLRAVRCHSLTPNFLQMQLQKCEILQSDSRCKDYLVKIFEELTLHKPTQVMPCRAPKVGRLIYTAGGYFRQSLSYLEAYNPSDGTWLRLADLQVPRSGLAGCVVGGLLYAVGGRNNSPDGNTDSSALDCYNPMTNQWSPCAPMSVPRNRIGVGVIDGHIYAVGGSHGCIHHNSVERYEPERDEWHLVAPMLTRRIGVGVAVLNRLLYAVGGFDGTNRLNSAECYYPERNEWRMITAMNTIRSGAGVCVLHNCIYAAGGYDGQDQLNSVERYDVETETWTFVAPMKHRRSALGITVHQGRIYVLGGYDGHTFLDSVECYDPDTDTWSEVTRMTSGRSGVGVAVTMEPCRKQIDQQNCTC

In the case of `COc1cc(/C=C/C(=O)N2CCC=CC2=O)cc(OC)c1OCCN1CCN(C(=O)CN2CCC(C(=O)Nc3ncc(SCc4ncc(C(C)(C)C)o4)s3)CC2)CC1` [compound 955, (E)-N-(5-(((5-(tert-butyl)oxazol-2-yl)methyl)thio)thiazol-2-yl)-1-(2-(4-(2-(2,6-dimethoxy-4-(3-oxo-3-(6-oxo-3,6-dihydropyridin-1(2H)-yl)prop-1-en-1-yl)phenoxy)ethyl)piperazin-1-yl)-2-oxoethyl)piperidine-4-carboxamide], the “EC50, anti-proliferation” value [1] is reported as “single digital nM range”, the “potency to kill MOLT4 cells compared with SNS-032” value [2] is reported as “more potent to kill MOLT4 cells compared with SNS-032” and the “competition with IA-alkyne for covalent binding to KEAP1” value [3] is reported as “concentration-dependent manner”.
